Consider 19 compounds from patent publication US9999616B2 (ZENITH EPIGENETICS LTD., priority 2013, dated 2018).

SMILES strings stand for the structures.

The test system of one assay is Human AML MV-4-11 cells. Kind of assay: Inhibition of cell proliferation in MV4-11 cells (CellTiter Aqueous One). In kind it is cell-based. The note with it: for IC50: MV4-11, 72 h. The gist of the method:
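MV4-11 cells, 5×10^4 per well in IMDM with 10% FBS, were exposed to increasing compound concentrations or 0.1% DMSO for 72 h at 37 °C in triplicate. Viability was read by MTS (CellTiter Aqueous One) absorbance at 490 nm after 3-4 h. IC50 was derived from background-corrected signal relative to DMSO.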

For a further assay, the system named is hIL-17 mRNA. Kind of assay: Inhibition of hIL-17 mRNA transcription in OKT3-stimulated peripheral blood mononuclear cells. The following applies: human PBMC, OKT3 stimulation 6 h, read-out: IL-17 Activity. In kind it is cell-based. The method, then: Human peripheral blood mononuclear cells were plated (2.0×10^5 cells per well) in a 96-well plate in 45 μL OpTimizer T Cell expansion media (Life Technologies) containing 20 ng/ml IL-2 and penicillin/streptomycin. The cells were treated with increasing concentrations of the test compound or DMSO (0.1%), and incubated at 37° C., 5% CO2 for 1 h before addition of 10× stock OKT3 antibody at 10 ug/ml in media. Triplicate wells were used for each concentration. Cells were incubated at 37° C., 5% CO2 for 6 h before the cells were harvested. At time of harvest, cells were pelleted by centrifugation at 800 rpm for 5 min. Cells were harvested using the mRNA Catcher PLUS kit according to manufacturer's instructions. The eluted mRNA was then used in a one-step quantitative real-time PCR reaction, using components of the RNA UltraSense™ One-Step Kit (Life Technologies) together with Applied Biosystems TaqMan® primer-probes for hIL-17 and Cyclophilin. Real-time PCR plates were run on a ViiA™7 real time PCR machine (Applied Biosystems), data was analyzed, normalizing the Ct values for hIL-17 to an internal control, prior to determining the fold induction of each unknown sample, relative to the control.

A further assay concerns hIL-6 mRNA. Kind of assay: Inhibition of hIL-6 mRNA transcription in LPS-stimulated U937 macrophages. In kind it is cell-based, Human. The following applies: Homo sapiens, U-937, PMA-differentiated U937 cells, 1 h pretreatment, LPS 3 h, read-out: IL-6 activity. The method, boiled down:
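PMA-differentiated U937 macrophages (60 ng/mL PMA, 3 days) pretreated 1 h with compound in 0.1% DMSO, then stimulated with 1 ug/mL E. coli LPS for 3 h at 37° C. IL-6 mRNA quantified by one-step TaqMan qRT-PCR, normalized to cyclophilin; fold expression relative to control, triplicate wells.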

The test system of assay [1] is c-myc in Human AML MV4-11 cells. Kind of assay: Inhibition of cMYC expression (mRNA, real-time PCR) in MV4-11 cells. In kind it is cell-based. The following applies: 3 h treatment, cMYC mRNA by real-time PCR. The gist of the method:
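MV4-11 cells in IMDM with 10% FBS were treated with increasing compound concentrations (DMSO 0.1%) for 3 h at 37 °C, in triplicate. Isolated mRNA was quantified by one-step TaqMan RT-qPCR, cMYC Ct normalized to cyclophilin, and fold expression given relative to DMSO control.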

The target in assay [2] is Brd4 bromodomain 1 (BRD4(1)) (Homo sapiens, UniProt O60885). Kind of assay: Inhibition of tetra-acetylated histone H4 binding to Brd4 bromodomain 1, measured by FRET (HTRF). On the set-up: made in house; host or cells: E. coli BL21(DE3). The following applies: 2 h at room temperature. The gist of the method:
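Inhibition was read as a drop in 665 nm relative to 620 nm HTRF signal after 2 h at room temperature, with IC50 from dose-response curves in duplicate wells. Reactions held 200 nM E. coli-expressed His-tagged bromodomain and 25-50 nM biotinylated tetra-acetylated histone H4 peptide. Buffer was 30 mM HEPES pH 7.4 with KF, CHAPS, BSA and 0.2% DMSO.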
Background: In TR-FRET formats the signal depends on donor and acceptor labels being close together.

With `Cc1noc(C)c1-c1cc(Nc2ccccc2)c2nc[nH]c2c1` [Example Compound 7, 6-(3,5-dimethylisoxazol-4-yl)-N-phenyl-1H-benzo[d] imidazol-4-amine], the IC50 in the assay on Human AML MV-4-11 cells is 300 to 3000 nM; in the assay on hIL-17 mRNA, 300 to 3000 nM; in the assay with hIL-6 mRNA, at most 300 nM; in assay [1], 300 to 3000 nM; in assay [2], at most 300 nM.
`Cc1noc(C)c1-c1cc2c(c(-c3c(C)noc3C)c1)OCC(=O)N2` [Example Compound 11, 6,8-bis(3,5-dimethylisoxazol-4-yl)-2H-benzo[b][1,4]oxazin-3(4H)-one]: the IC50 in the assay with Human AML MV-4-11 cells was 300 to 3000 nM; with hIL-17 mRNA it was 300 to 3000 nM; in the assay on hIL-6 mRNA, 300 to 3000 nM; in assay [1], 300 to 3000 nM; in assay [2] it was at most 300 nM.
Consider `Cc1noc(C)c1-c1cc(-c2c(C)noc2C)c2nc(C(C)C)[nH]c2c1` [Example Compound 45, 4,4′-(2-isopropyl-1H-benzo[d]imidazole-4,6-diyl)bis(3,5-dimethylisoxazole)], for which the IC50 in the assay with Human AML MV-4-11 cells was 300 to 3000 nM; in the assay with hIL-17 mRNA, 300 to 3000 nM; in assay [1], 300 to 3000 nM; in assay [2], at most 300 nM.
As for `COc1ncccc1-c1cc(-c2c(C)noc2C)cc2[nH]cnc12` [Example Compound 48, 4-(4-(2-methoxy-pyridin-3-yl)-1H-benzo[d]imidazol-6-yl)-3,5-dimethyl isoxazole], the IC50 with Human AML MV-4-11 cells is 300 to 3000 nM; with hIL-17 mRNA, 300 to 3000 nM; in assay [1], 300 to 3000 nM; in assay [2] it was at most 300 nM.
Take `Cc1nc2c(-c3cc(C#N)ccc3C)cc(-c3c(C)noc3C)cc2[nH]1` [Example Compound 58, 3-(6-(3,5-dimethyl-isoxazol-4-yl)-2-methyl-1H-benzo[d]imidazol-4-yl)-4-methyl-benzonitrile]: the IC50 is at most 300 nM in the assay on Human AML MV-4-11 cells, 300 to 3000 nM in the assay on hIL-17 mRNA, at most 300 nM with hIL-6 mRNA and at most 300 nM in assay [2].
Take `Cc1nc2c(-c3cccnc3C(F)(F)F)cc(-c3c(C)noc3C)cc2[nH]1` [Example Compound 59, 3,5-dimethyl-4-(2-methyl-4-(2-(trifluoro-methyl)pyridin-3-yl)-1H-benzo[d]imidazol-6-yl)isoxazole]: the IC50 is at most 300 nM in the assay on Human AML MV-4-11 cells, 300 to 3000 nM in the assay on hIL-17 mRNA, at most 300 nM in the assay with hIL-6 mRNA and at most 300 nM in assay [2].
As to `Cc1ccc(C#N)cc1-c1cc(-c2c(C)noc2C)cc2[nH]c(NC3CCN(C)CC3)nc12` [Example Compound 205, 3-(6-(3,5-dimethyl-isoxazol-4-yl)-2-((1-methyl-piperidin-4-yl)amino)-1H-benzo[d]imidazol-4-yl)-4-methyl benzonitrile], the IC50 was 300 to 3000 nM in the assay with Human AML MV-4-11 cells, 300 to 3000 nM with hIL-6 mRNA, at most 300 nM in assay [1] and at most 300 nM in assay [2].
As for `Cc1noc(C)c1-c1cc(-c2cccc(C(N)=O)c2C)c2nc(N3CCN(C)CC3)[nH]c2c1` [Example Compound 206, 3-(6-(3,5-dimethyl-isoxazol-4-yl)-2-(4-methyl-piperazin-1-yl)-1H-benzo[d]imidazol-4-yl)-2-methyl benzamide], the IC50 in the assay with Human AML MV-4-11 cells was 300 to 3000 nM; with hIL-6 mRNA, 300 to 3000 nM; in assay [1], 300 to 3000 nM; in assay [2], at most 300 nM.
`Cc1noc(C)c1-c1cc(-c2cccc(C(N)=O)c2C)c2nc(NC3CCOCC3)[nH]c2c1` [Example Compound 207, 3-(6-(3,5-dimethyl-isoxazol-4-yl)-2-((tetrahydro-2H-pyran-4-yl)amino)-1H-benzo[d]imidazol-4-yl)-2-methyl benzamide]: the IC50 in the assay on Human AML MV-4-11 cells is 300 to 3000 nM; in the assay on hIL-6 mRNA, 300 to 3000 nM; in assay [1] it was 300 to 3000 nM; in assay [2], at most 300 nM.
Consider `Cc1noc(C)c1-c1cc(-c2cccc(C#N)c2C)c2nc(N3CCC(N)CC3)[nH]c2c1` [Example Compound 209, 3-(2-(4-amino-piperidin-1-yl)-6-(3,5-dimethyl-isoxazol-4-yl)-1H-benzo[d]imidazol-4-yl)-2-methyl benzonitrile], for which the IC50 in the assay on Human AML MV-4-11 cells was at most 300 nM; in the assay on hIL-6 mRNA, 300 to 3000 nM; in assay [1] it was 300 to 3000 nM; in assay [2], at most 300 nM.
`Cc1ccc(C#N)cc1-c1cc(-c2c(C)noc2C)cc2[nH]c(NCc3ccccc3)nc12` [Example Compound 210, 3-(2-(benzylamino)-6-(3,5-dimethyl-isoxazol-4-yl)-1H-benzo[d]imidazol-4-yl)-4-methyl benzonitrile]: the IC50 with Human AML MV-4-11 cells is at most 300 nM; with hIL-6 mRNA, 300 to 3000 nM; in assay [1], 300 to 3000 nM; in assay [2], at most 300 nM.
`CNc1nc2c(-c3cnccc3C)cc(-c3c(C)noc3C)cc2[nH]1` [Example Compound 214, 6-(3,5-dimethyl-isoxazol-4-yl)-N-methyl-4-(4-methylpyridin-3-yl)-1H-benzo[d] imidazol-2-amine]: the IC50 with Human AML MV-4-11 cells was at most 300 nM; in the assay with hIL-6 mRNA, 300 to 3000 nM; in assay [1], at most 300 nM; in assay [2] it was at most 300 nM.
For the compound `Cc1noc(C)c1-c1cc(-c2cc(N)c(=O)n(C)c2)c2nc[nH]c2c1` [Example Compound 225, 3-amino-5-(6-(3,5-dimethylisoxazol-4-yl)-1H-benzo[d]imidazol-4-yl)-1-methyl-pyridin-2(1H)-one], the IC50 in the assay with Human AML MV-4-11 cells fell in the range of 3000 to 30000 nM; in the assay with hIL-6 mRNA, 3000 to 30000 nM; in assay [1], 300 to 3000 nM; in assay [2] it was 300 to 3000 nM.
Consider `Cc1noc(C)c1-c1cc(-c2c(C)noc2C)c2nc(N3CCOCC3)[nH]c2c1` [Example Compound 226, 4-(4,6-bis(3,5-dimethylisoxazol-4-yl)-1H-benzo[d]imidazol-2-yl)morpholine], for which the IC50 (with Human AML MV-4-11 cells; with hIL-6 mRNA; in assay [1]; in assay [2]) was at most 300 nM in each case.
Regarding `COc1c(-c2c(C)noc2C)cc2[nH]c(C)nc2c1-c1c(C)noc1C` [Example Compound 227, 4,4′-(5-methoxy-2-methyl-1H-benzo[d]imidazole-4,6-diyl)bis(3,5-dimethylisoxazole)], the IC50 was 3000 to 30000 nM in the assay with Human AML MV-4-11 cells, 300 to 3000 nM in the assay on hIL-6 mRNA, 300 to 3000 nM in assay [1] and 300 to 3000 nM in assay [2].
Turning to `Cc1noc(C)c1-c1cc(-c2c(C)noc2C)c2nc(C3CCOCC3)[nH]c2c1` [Example Compound 228, 4,4′-(2-(tetrahydro-2H-pyran-4-yl)-1H-benzo[d]imidazole-4,6-dyl)bis(3,5-dimethylisoxazole)], the IC50 in the assay on Human AML MV-4-11 cells was 300 to 3000 nM; in the assay on hIL-6 mRNA it was 300 to 3000 nM; in assay [1], 300 to 3000 nM; in assay [2], at most 300 nM.
Regarding `Cc1noc(C)c1-c1cc(-c2c(C)noc2C)c2nc(NC3CCOCC3)[nH]c2c1` [Example Compound 229, 4,6-bis(3,5-dimethyl-isoxazol-4-yl)-N-(tetrahydro-2H-pyran-4-yl)-1H-benzo[d] imidazol-2-amine], the IC50 in the assay on Human AML MV-4-11 cells was 300 to 3000 nM; in the assay with hIL-6 mRNA, at most 300 nM; in assay [1], at most 300 nM; in assay [2], at most 300 nM.
In the case of `Cc1noc(C)c1-c1cc(-c2ccnn2C)cc2[nH]cnc12` [Example Compound 230, 3,5-dimethyl-4-(6-(1-methyl-1H-pyrazol-5-yl)-1H-benzo[d]imidazol-4-yl)isoxazole], in the assay with Human AML MV-4-11 cells (72 h), the “Cell Proliferation activity” value is given as “Not active”. Also, the values for the IC50 (with hIL-6 mRNA; in assay [1]; in assay [2]) were 3000 to 30000 nM, 300 to 3000 nM and 300 to 3000 nM, respectively.
Take `Cc1noc(C)c1-c1cc(-c2c(C)noc2C)c2nc(N3CCN(C)CC3)[nH]c2c1` [Example Compound 231, 4,4′-(2-(4-methyl-piperazin-1-yl)-1H-benzo[d]imidazole-4,6-diyl) bis(3,5-dimethylisoxazole)]: the IC50 (in the assay with Human AML MV-4-11 cells; in the assay on hIL-6 mRNA; in assay [1]; in assay [2]) was at most 300 nM each time.
